Entries after “also recorded” stand apart in the source; their conditions may differ.

The test system of data set [1] is COX1 mutant cells. Put plainly: MMP and viability of cybrid cells with mtDNA from a patient with a deficiency in COX1. The format is cell-based, human. Conditions: FIG. 7E. The procedure: (§1) 200,000 cells were stained with 25 nM TMRM dye (Invitrogen) in parent media of cells. In the case of adherent cells, 10 uM verapamil (Sigma-Aldrich) was added to help retention of the dye. For suspension cells, the incubation of the dye was done for 30 minutes at 37° C., whereas for adherent cells, the incubation was done for 1 hour at 37° C. Suspension cells were kept on ice, then spun at 4000 rpm for 5 minutes at 4° C. in a table-top microcentrifuge, supernatant aspirated, cells washed once with ice-cold PBS, resuspended in ice-cold PBS with 2 ug/mL 7-AAD viability dye, incubated for 5 minutes on ice, and analyzed by FACS. Only 7-AAD negative live cells were analyzed. Adherent cells were first trypsinized, kept on ice, spun at 4000 rpm for 5 minutes at 4° C. in a table-top microcentrifuge, supernatant aspirated, cells washed once with ice-cold PBS, resuspended in ice-cold PBS with 2 ug/mL 7-AAD viability dye, incubated for 5 minutes on ice, and analyzed by FACS. Only 7-AAD negative live cells were analyzed.
(§2) Suspension cells were kept on ice, then spun at 4000 rpm for 5 minutes at 4° C. in a table-top microcentrifuge, supernatant aspirated, cells washed once with ice-cold PBS, resuspended in ice-cold PBS with 2 ug/mL 7-AAD viability dye, incubated for 5 minutes on ice, and analyzed by FACS. […] Viability was assessed by 7-AAD exclusion. […]

Data set [2] has as its system cybrid cells having mtDNA derived from a normal (WT) subject. Put plainly: MMP and viability of cybrid cells with mtDNA from a normal (WT) subject. Conditions: FIG. 7E. The format is cell-based, human. The procedure:
as §1, §2

The subject of data set [3] is KBM7 cells. Put plainly: Cellular ATP (CellTiterGlo) in WT and ATPIF1 KO KBM7 cells. The format is cell-based, human. The protocol: (§3) Equal numbers of cells were plated and ATP was determined using a CellTiterGlo assay (Promega) according to the manufacturer's instructions.
For data set [4], the system named is KBM7 cells. Put plainly: Viability/proliferation of wild type and ATPIF1 null KBM7 cells treated with mitochondrial poisons (7-AAD, FACS). The format is cell-based, human. The text has this:
In order to identify potential drug targets for treatment of mitochondrial disorders, we decided to use inhibitors of oxidative phosphorylation (OXPHOS) to model mitochondrial diseases and search for genes, loss-of-function of which can confer resistance to mitochondrial dysfunction caused by the poison. To that end, we explored use of a screening platform based on gene inactivation in human cells using insertional mutagenesis that has recently been developed using the KBM7 CML cell line, which is haploid for all chromosomes except chromosome 8 (5). In this system, insertional mutagenesis is accomplished using a gene trap vector. […]
For the viability assays described in this Example and Example 2, 200,000 cells were used for each sample. Cells were treated with the desired concentration of drug and viability was assessed four days later using 7-AAD and FACS analysis.
(§4) Suspension cells were kept on ice, then spun at 4000 rpm for 5 minutes at 4° C. in a table-top microcentrifuge, supernatant aspirated, cells washed once with ice-cold PBS, resuspended in ice-cold PBS with 2 ug/mL 7-AAD viability dye, incubated for 5 minutes on ice, and analyzed by FACS. For adherent cells, the overlying media and PBS used for pre-trypsinization washes was collected and combined with the suspension of trypsinized cells to gather any dead cells that may have detached into the media. The cell suspensions were kept on ice, spun at 1500 rpm for 5 minutes at 4° C. in a swinging bucket centrifuge, supernatant aspirated, cells washed once with ice-cold PBS, resuspended in ice-cold PBS with 2 ug/mL 7-AAD viability dye, incubated for 5 minutes on ice, and analyzed by FACS. Viability was assessed by 7-AAD exclusion. For HeLa, SH-SY5Y, and Malme-3M cells, 500-2,000 cells were seeded per well of white, clear-bottom 96-well plates (Greiner Bio-One), treated with drugs, and then analyzed using CellTiter-Glo according to the manufacturer's instructions (Promega). For primary hepatocytes, 100,000 cells were seeded per well of a 24-well TPP plate (Light Labs), treated with antimycin, and then analyzed using CellTiter-Glo.

In data set [5] the test system is KBM7 cells. Put plainly: Mitochondrial membrane potential (TMRM staining, FACS) in WT and ATPIF1 KO KBM7 cells. The class given is cell-based, human. To be noted: for rescue by loss of ATPIF1 of the loss of mitochondrial membrane potential caused by the poison: FIG. 4, TMRM. The procedure: Membrane potential was assessed using tetramethyl rhodamine methyl ester (TMRM). For the TMRM time course: 200,000 cells were used for each time point. Cells were treated with 121 uM antimycin and incubated in 25 nM TMRM (final concentration) in IMDM 20 minutes from the end of their time point at 37° C. and then analyzed by FACS analysis. Dead cells were excluded using 7-AAD.
as §1
(§5) FACS assays. For measurements of ΔΨm, 100,000 cells were incubated with TMRM (25 nM) and the indicated amounts of drugs for the indicated amounts of time before collection. For measurements of mitochondrial mass, 100,000 cells were incubated with MitoTracker Green FM (50 nM) for one hour. For primary hepatocytes, cells were assayed in suspension immediately after harvest from the liver and incubated with verapamil (20 μM) to facilitate retention of TMRM and MitoTracker Green FM signals. Afterwards, cells were collected by centrifugation, washed once with PBS, and resuspended in PBS with 7-AAD (2 μg/mL) for analysis. KBM7 cells and primary hepatocytes were centrifuged at 2000 rpm for 5 minutes and 500 rpm for 5 minutes at 4° C., respectively.

Data set [6] deals with Malme-3M cells. Put plainly: Viability of Malme-3M cells overexpressing ATPIF1 treated with antimycin (CellTiter-Glo). The class given is cell-based. Conditions: antimycin for 4 days; FIG. 7G. The protocol:
as §4, with “CellTiter-Glo. […]” for “CellTiter-Glo.”
Background: ATP-based viability assays read luminescence as a measure of living cells.

The subject of data set [7] is KBM7 cells. Put plainly: Metabolite profiling of WT and IF1 KO KBM7 cells after antimycin treatment. To be noted: after 1 hour of antimycin treatment; FIG. 7D as printed. The class given is cell-based, human. The procedure: 4 million KBM7 cells were centrifuged at 1500 rpm for 4 minutes at 4° C. in a swinging bucket centrifuge after the desired drug treatments. The supernatant was decanted and the cell pellet kept on dry ice. Each cell pellet was washed twice with ice-cold PBS. 3 mL of 80% ice-cold MeOH was then added to each pellet and the pellet vigorously resuspended. Samples were then submitted to the Broad Institute Metabolomics Platform for further processing and analysis.

For data set [8], the system named is primary hepatocytes. Put plainly: ATP, ΔΨm and viability of WT and ATPIF1−/− primary hepatocytes treated with antimycin. The class given is cell-based, mice. The procedure: as §3, §4
as §5, with “KBM7 cells and primary hepatocytes were centrifuged at 2000 rpm for 5 minutes and 500 rpm for 5 minutes at 4° C., respectively.” left out

Regarding `CC[C@H]1/C=C/C=C/C[C@@H](C)[C@H](O)[C@@](C)(O)C(=O)[C@@H](C)[C@H](O)[C@@H](C)C(=O)[C@@H](C)[C@H](O)[C@@H](C)/C=C/C(=O)O[C@@H]2[C@H](C)[C@H](CC1)O[C@]1(CC[C@H](C)[C@H](C[C@@H](C)O)O1)[C@H]2C` [oligomycin], in data set [1], the “MMP of cells having patient-derived (COX1 deficient) mtDNA” value is listed as “dramatic decrease in MMP” and the “viability of cells having patient-derived (COX1 deficient) mtDNA” value was “kills the cells having patient-derived mtDNA”. Moreover, in data set [2], the “MMP and viability of cells having mtDNA derived from healthy subjects (WT)” value is on record as “not cells having mtDNA derived from healthy subjects”. For the same compound, in data set [3] (oligomycin added to antimycin), the “ATP of antimycin-treated IF1 KO KBM7 cells on addition of oligomycin” value was “completely prevents IF1 KO cells from rescuing their MMP and using ATP; also recorded: increased ATP levels”. The “survival of antimycin-treated IF1 KO KBM7 cells on addition of oligomycin” value in data set [4] (oligomycin added to antimycin, 7-AAD, FIG. 7D) is reported as “decreased survival”. Moreover, in data set [5], the “rescue by loss of ATPIF1 of the loss of mitochondrial membrane potential caused by the poison” value is “not rescued”. In addition, in data set [5] (oligomycin added to antimycin), the “MMP (ΔΨm) of antimycin-treated IF1 KO KBM7 cells on addition of oligomycin” value is given as “completely prevents IF1 KO cells from rescuing their MMP; also recorded: decreased ΔΨm”.
For the compound antimycin A, the “ATP levels of ATPIF1 null vs WT KBM7 cells following antimycin treatment” value in data set [3] (FIG. 3A) was “significantly lower levels of initial ATP compared to WT cells”. Besides, in data set [3] (antimycin exposure, FIG. 7B), the “ATP levels in IF1 KO KBM7 cells” value is “decreased significantly” and the “ATP levels in WT KBM7 cells” value is “not in WT cells”. The “sensitivity of Malme-3M cells overexpressing ATPIF1” value in data set [6] is listed as “increased their sensitivity to antimycin”. In addition, in data set [4] (antimycin A 121 μm, FIG. 1D), the “proliferation of clone 18 (ATPIF1 null) KBM7 cells” value was “clone 18 cells continue proliferating” and the “proliferation of wild type KBM7 cells” value was “wild type cells cease proliferating”. In addition, the “resistance of ATPIF1 null KBM7 cells to the poison” value in data set [4] (viability four days later, 7-AAD, FIG. 1C-D, FIG. 2) is recorded as “marked resistance”. Moreover, the “glycolytic metabolites (DHAP, glyceraldehyde 3P, F6P), IF1 KO vs WT KBM7 cells” value in data set [7] is given as “more depletion of glycolytic metabolites”. Further, the “cellular ATP, ATPIF1−/− vs WT hepatocytes” value in data set [8] (antimycin 0.625 μM for 1.5 hours, FIG. 11B) was “greater decrease in cellular ATP”. Also, the “cell viability, ATPIF1−/− vs WT hepatocytes” value in data set [8] (antimycin 1.25 μM for 2 days, FIG. 11D) is “increased cell viability relative to WT hepatocytes”. The “ΔΨm, ATPIF1−/− vs WT hepatocytes” value in data set [8] (antimycin 10 μM for 1.5 hours, FIG. 11C) is listed as “greater increase in ΔΨm”. Further, the “rescue by loss of ATPIF1 of the loss of mitochondrial membrane potential caused by the poison” value in data set [5] is listed as “rescued (in part)”. For the same compound, in data set [5] (antimycin exposure, FIG. 7B), the “MMP in IF1 KO KBM7 cells” value is reported as “significant recovery in MMP after loss of MMP” and the “recovery of MMP in WT KBM7 cells” value is listed as “WT cells did not”.

For the origin of these results see patent US20150065556A1, “THERAPEUTIC TARGETS FOR MITOCHONDRIAL DISORDERS” (Whitehead Institute for Biomedical Research, priority 2013, published 2015).
